This test concerns SK-N-SH human neuroblastoma cells. The test is described as follows: Serum Deprivation/JC-1 Mitochondrial Membrane Potential (MMP) Assay. The test is classed as cell-based. To be noted: for EC50: serum deprivation ~18 hours, JC-1 ratio normalized to peak value for 10 μM dimebolin, single curve fit to mean data of n=2-3; for Emax: read-out: JC-1 max %; for activation at 3 µM: single dose 3 μM, JC-1 ratio normalized to peak value for 10 μM dimebolin (n=2-4), read-out: JC-1 max % (@ 3 μM). The source says:
The method also involves a high-throughput assay using serum-deprivation conditions involving neuronal cells to screen for compounds that increase or preserve mitochondrial membrane potential. Such compounds can be found to aid in rescuing cells from energy-depletion that occurs in several neurodegenerative states. Mitochondrial-mediated apoptosis occurs in response to a wide range of apoptotic stimuli including p^53, c-myc, DNA damage, prooxidants, chemotherapeutic agents, serum starvation and death receptor activation (Lin C—H., Lu Y-Z., Cheng, F-C., Chu L-F. and Hsuch C-M. Bax-regulated mitochondrial-mediated apoptosis is responsible for the in vitro ischemia induced neuronal cell death of Sprague Dawley rat. Neuroscience Lett. 2005, 387, 22-27).
Thus, this stress inducer, serum deprivation, combined with monitoring changes in the mitochondrial membrane potential in a 96-well format allows for the establishment of an efficient high-throughput screen (HTS) in order to evaluate the ability of compounds to increase mitochondrial membrane potential in the presence of stress and preserve health of the cell. Exemplary procedures for conducting such high-throughput assay are provided below.
SK-N-SH human neuroblastoma cells obtained from American Type Culture Collection (Rockville, Md.) were maintained in the log phase of growth in Minimal Essential Media (MEM), 10% heat inactivated fetal calf serum and 100 units/mL antibiotic-antimycotic (AA). Cells were cultured and maintained in a humidified incubator at 37° C. under 5% CO2 and 95% air. Cells were trypsinized (0.25%) and subcultured every 3 days and used from 15-18 passages. All cell culture supplies were obtained from Invitrogen (Carlsbad, Calif.).
SK-N-SH cells were plated 2-3 days in advance at a concentration of 50,000 cells/well onto collagen coated black-walled 96 well plates (Becton-Dickinson, Bedford, Mass.) in a total volume of […]. On day of experimental treatment, the media containing serum was aspirated from each well and rinsed once with MEM/1% AA without serum. The cells then were incubated overnight in 100 μL of MEM/1% AA (no serum) with and without dimebolin or novel chemical entities overnight for ˜18 hours. The following day, JC-1 dye (5,5′,6,6′-tetrachloro-1,1′,3,3′-tetraethylbenzimidazolcarbocyanide) was diluted 1:10 into MEM media according to the JC-1 Mitochondrial Membrane Potential Assay Kit: (Cayman Chemical Company, Ann Arbor, Mich.) and then 10 μL of the JC-1 dye solution was added to each well. The plates were centrifuged for 5 minutes at 400×g at room temperature followed by 40 minute incubation at 37° C. The plates were washed twice with 200 μL of provided Assay Buffer followed an addition of 100 μL of Assay Buffer to each well. The plates were read with an excitation and emission of 560 nm and 595 nM for red fluorescence and with an excitation and emission of 485 nm and 535 nM for green fluorescence to determine the final JC-1 value taking the red to green fluorescence ratio. This assay is based on change in mitochondrial membrane potential (MMP) using this lipophilic cationic dye, JC-1, by monitoring the changes in the ratio of red to green fluorescence as the MMP depolarizes. This change in MMP reflects the health of the cell with healthy, viable cells have a high JC-1 ratio and high MMP whereas apoptotic, unhealthy cells have a low JC-1 ratio or low MMP.
For the ability of compounds to reverse the stress due to serum deprivation and increase the JC-1 ratio, the percent maximal intensity in JC-1 ratio was normalized to that induced by the peak value for 10 μM dimebolin and plotted against the compound concentration to calculate EC50 values and to control for plate-to-plate variability. Concentration-response data were analyzed using GraphPad Prism (San Diego, Calif.); the EC50 values were derived from a single curve fit to the mean data of n=2-3, in duplicates. […]

The mark [1] stands for this setting: Homo sapiens, SK-N-SH, percent maximal intensity in JC-1 ratio normalized to peak value for 10 μM dimebolin, serum deprivation.
Setting [2] is: Homo sapiens, serum deprivation.

The EC50 is the concentration giving half of the maximal effect. For the compound `O=C(NCC1CC1)N1Cc2ccccc2N2CCN(Cc3ccccc3)CC2C1` (stereo not shown) [Example 160, 3-benzyl-N-(cyclopropylmethyl)-1,2,3,4,4a,5-hexahydropyrazino[1,2-a][1,4]benzodiazepine-6(7H)-carboxamide], the concentration giving a half-maximal response (EC50) (Homo sapiens, SK-N-SH, 18 h) was 645 nM. In addition, the Emax under setting [1] is 245%. For `O=C1C2CNCCN2c2ccccc2CN1Cc1ccc(Br)cc1` (stereo not shown) [Example 70, 6-(4-bromobenzyl)-2,3,4,4a,6,7-hexahydropyrazino[1,2-a][1,4]benzodiazepin-5(1H)-one] the same measures were 9610 nM and 156%. On to `O=C(/C=C/c1ccccc1)N1Cc2ccccc2N2CCN(Cc3ccccc3)CC2C1` (stereo not shown) [Example 20, (2E)-1-(3-benzyl-1,2,3,4,4a,5-hexahydropyrazino[1,2-a][1,4]benzodiazepin-6(7H)-yl)-3-phenylprop-2-en-1-one], for which the half-maximal effective concentration (EC50) (Homo sapiens, SK-N-SH, 18 h) is 5470 nM. Moreover, the Emax under setting [1] came to 133%.

On to `O=C(C1CCC1)N1Cc2ccccc2N2CCN(Cc3ccccc3)CC2C1` (stereo not shown) [Example 115, (3-benzyl-1,2,3,4,4a,5-hexahydropyrazino[1,2-a][1,4]benzodiazepin-6(7H)-yl)(cyclobutyl)methanone], for which, under “Homo sapiens, SK-N-SH, 18 h”, the half-maximal effective concentration (EC50) was 1250 nM. In addition, the Emax under setting [1] worked out at 177%. Regarding `Brc1ccc(CN2Cc3ccccc3N3CCN(Cc4ccccc4)CC3C2)cc1` (stereo not shown) [Example 3, 3-benzyl-6-(4-bromobenzyl)-1,2,3,4,4a,5,6,7-octahydropyrazino[1,2-a][1,4]benzodiazepine], the EC50 amounted to 2880 nM. For the same compound, under “percent maximal intensity in JC-1 ratio normalized to peak value for 10 μM dimebolin, serum deprivation”, the JC-1 max % is 226%. As for `O=C(N1CCOCC1)N1Cc2ccccc2N2CCN(Cc3ccccc3)CC2C1` (stereo not shown) [Example 14, (3-benzyl-1,2,3,4,4a,5-hexahydropyrazino[1,2-a][1,4]benzodiazepin-6(7H)-yl)(morpholin-4-yl)methanone], the EC50 (Homo sapiens, SK-N-SH, 18 h) was 754 nM. In addition, the Emax under setting [1] was 203%. `CC(C)CN1Cc2ccccc2N2CCN(Cc3ccccc3)CC2C1` (stereo not shown) [Example 148, 3-benzyl-6-isobutyl-1,2,3,4,4a,5,6,7-octahydropyrazino[1,2-a][1,4]benzodiazepine]: under setting [2], the activation at 3 µM amounted to 38%. Take `O=C1CC2CN(Cc3ccccc3)CCN2c2ncccc2N1` (stereo not shown) [Example 51, 9-benzyl-7,7a,8,9,10,11-hexahydropyrazino[1,2-d]pyrido[3,2-b][1,4]diazepin-6(5H)-one]: under “Homo sapiens, SK-N-SH, 18 h”, the EC50 worked out at 8830 nM. The Emax under setting [1] was found to be 68%. As for `O=C(Cc1cccnc1)N1Cc2ccccc2N2CCN(Cc3ccccc3)CC2C1` (stereo not shown) [Example 98, 1-(3-benzyl-1,2,3,4,4a,5-hexahydropyrazino[1,2-a][1,4]benzodiazepin-6(7H)-yl)-2-(pyridin-3-yl)ethanone], the activation at 3 µM under setting [2] was found to be 107%. For the compound `O=C(N1CCOCC1)N1Cc2ccccc2N2CCN(c3ccc(Cl)cc3)CC2C1` (stereo not shown) [Example 82, [3-(4-chlorophenyl)-1,2,3,4,4a,5-hexahydropyrazino[1,2-a][1,4]benzodiazepin-6(7H)-yl](morpholin-4-yl)methanone], the concentration for a half-maximal effect (EC50) (Homo sapiens, SK-N-SH, 18 h) is 5110 nM. Also, under setting [1], the Emax turned out to be 127%.

With `c1ccc(CN2CCN3c4ccccc4CN(Cc4cnc5ccccc5c4)CC3C2)cc1` (stereo not shown) [Example 33, 3-benzyl-6-(quinolin-3-ylmethyl)-1,2,3,4,4a,5,6,7-octahydropyrazino[1,2-a][1,4]benzodiazepine], the EC50 (Homo sapiens, SK-N-SH, 18 h) stood at 1300 nM. Besides, under setting [1], the Emax turned out to be 192%. The matching figures for `O=C(Cc1ccc(Cl)nc1)N1Cc2ccccc2N2CCN(Cc3ccccc3)CC2C1` (stereo not shown) [Example 60, 1-(3-benzyl-1,2,3,4,4a,5-hexahydropyrazino[1,2-a][1,4]benzodiazepin-6(7H)-yl)-2-(6-chloropyridin-3-yl)ethanone]: 4140 nM and 224%.

As to `O=C(c1ccoc1)N1Cc2ccccc2N2CCN(Cc3ccccc3)CC2C1` (stereo not shown) [Example 94, (3-benzyl-1,2,3,4,4a,5-hexahydropyrazino[1,2-a][1,4]benzodiazepin-6(7H)-yl)(3-furyl)methanone], the half-maximal effective concentration (EC50) (Homo sapiens, SK-N-SH, 18 h) stood at 2760 nM. In addition, the Emax under setting [1] is 172%. For `Cc1cc(C(=O)N2Cc3ccccc3N3CCN(Cc4ccccc4)CC3C2)c(C)[nH]1` (stereo not shown) [Example 96, (3-benzyl-1,2,3,4,4a,5-hexahydropyrazino[1,2-a][1,4]benzodiazepin-6(7H)-yl)(2,5-dimethyl-1H-pyrrol-3-yl)methanone] the same measures were 856 nM and 180%. The matching figures for `Brc1ccc(CN2CCC3CN(Cc4ccccc4)CCN3c3ccccc32)cc1` (stereo not shown) [Example 47, 3-benzyl-7-(4-bromobenzyl)-1,2,3,4,4a,5,6,7-octahydropyrazino[1,2-a][1,5]benzodiazepine]: 2780 nM and 273%. The matching figures for `N#Cc1ccc(CN2Cc3ccccc3N3CCN(Cc4ccccc4)CC3C2)cc1` (stereo not shown) [Example 128, 4-[(3-benzyl-1,2,3,4,4a,5-hexahydropyrazino[1,2-a][1,4]benzodiazepin-6(7H)-yl)methyl]benzonitrile]: 4250 nM and 168%.

Regarding `c1ccc(CN2CCN3c4ccccc4CN(Cc4ccnc5ccccc45)CC3C2)cc1` (stereo not shown) [Example 36, 3-benzyl-6-(quinolin-4-ylmethyl)-1,2,3,4,4a,5,6,7-octahydropyrazino[1,2-a][1,4]benzodiazepine], the half-maximal effective concentration (EC50) (Homo sapiens, SK-N-SH, 18 h) stood at 1050 nM. Further, the Emax under setting [1] was found to be 137%. Consider `O=C(Cc1ccccc1)N1Cc2ccccc2N2CCN(Cc3ccccc3)CC2C1` (stereo not shown) [Example 4, 1-(3-benzyl-1,2,3,4,4a,5-hexahydropyrazino[1,2-a][1,4]benzodiazepin-6(7H)-yl)-2-phenylethanone], for which, under “Homo sapiens, SK-N-SH, 18 h”, the EC50 stood at 2420 nM. Also, the Emax under setting [1] was determined as 263%.

With `Fc1ccc(CN2Cc3ccccc3N3CCN(Cc4ccccc4)CC3C2)cc1F` (stereo not shown) [Example 25, 3-benzyl-6-(3,4-difluorobenzyl)-1,2,3,4,4a,5,6,7-octahydropyrazino[1,2-a][1,4]benzodiazepine], the EC50 (Homo sapiens, SK-N-SH, 18 h) is 15700 nM. Also, under setting [1], the Emax was 128%. On to `O=C(NCc1ccncc1)N1Cc2ccccc2N2CCN(Cc3ccccc3)CC2C1` (stereo not shown) [Example 155, 3-benzyl-N-(pyridin-4-ylmethyl)-1,2,3,4,4a,5-hexahydropyrazino[1,2-a][1,4]benzodiazepine-6(7H)-carboxamide], for which, under setting [2], the activation at 3 µM is 75%. The same measure, in the same setting: with `O=C(C1CCOC1)N1Cc2ccccc2N2CCN(Cc3ccccc3)CC2C1` (stereo not shown) [Example 109, (3-benzyl-1,2,3,4,4a,5-hexahydropyrazino[1,2-a][1,4]benzodiazepin-6(7H)-yl)(tetrahydrofuran-3-yl)methanone] the figure was 65%. As for `O=C(C1CC1)N1Cc2ccccc2N2CCN(Cc3ccccc3)CC2C1` (stereo not shown) [Example 112, (3-benzyl-1,2,3,4,4a,5-hexahydropyrazino[1,2-a][1,4]benzodiazepin-6(7H)-yl)(cyclopropyl)methanone], for the setting “Homo sapiens, SK-N-SH, 18 h”, the EC50 is 4670 nM. Under setting [1], the Emax came out at 139%. The matching figures for `O=C(Cn1ncccc1=O)N1CCC2CN(Cc3ccccc3)CCN2c2ccccc21` (stereo not shown) [Example 78, 2-[2-(3-benzyl-2,3,4,4a,5,6-hexahydropyrazino[1,2-a][1,5]benzodiazepin-7(1H)-yl)-2-oxoethyl]pyridazin-3(2H)-one]: 8550 nM and 143%. Take `CCCCN(CC#N)C(=O)N1Cc2ccccc2N2CCN(Cc3ccccc3)CC2C1` (stereo not shown) [Example 165, 3-benzyl-N-butyl-N-(cyanomethyl)-1,2,3,4,4a,5-hexahydropyrazino[1,2-a][1,4]benzodiazepine-6(7H)-carboxamide]: the activation at 3 µM under setting [2] was found to be 251%.

The values above are taken from patent publication US9133206B2, “Benzodiazepine and pyridodiazepine derivatives” (AbbVie Inc., priority 2010, dated 2015).
